Assays:
Psudomonas syringe = experiment: Inhibition of bacteria in BkERF transformed B. kaoi cells; type: cell-based; settings: 6 days after infection, transformed B. kaoi cells overexpressing the gene
Source text: (§1) The BkERF1, BkERF2.1, and BkERF2.2 genes are SEQ ID NO. 3, SEQ ID NO. 1 and SEQ ID NO. 2 respectively. The coding region of BkERFs was cloned into the multiple cloning site of the binary vector under the CaMV 35S promoter and the nopaline synthase termination sequence. The resulting vector was introduced into the Agrobacterium tumefaciens which was introduced into the cells of B. kaoi. The B. kaoi cells overexpressed BkERFs genes were observed using Western blot.
(§2) Bacteria suspension of a concentration about 10^8 cfu/ml was made from bacteria cultured 1-2 days with culture medium, and inoculated to 0.2 g BkERF transformed calli then grown in a 25° C. incubator. After six days, the calli was homogenized in 10 mM magnesium sulfate. Serial dilution of the bacteria was prepared and spread on nutrient agar plate containing 50 mg/L rifampicin. The plates were put in a 28° C. incubator for two days and then the numbers of bacteria were calculated.

Staphylococcus aureus = experiment: as above; type: cell-based; settings: 6 days after infection, transformed B. kaoi cells overexpressing the gene
Source text: as §1, §2

| Substance | Growth of bacteria in the transformed cells (bacterial numbers) (Psudomonas syringe) | Growth of bacteria in the transformed cells (bacterial numbers) (Staphylococcus aureus) |
| --- | --- | --- |
| ERF1: B. kaoi ethylene response factor gene, ORF of 633 bp encoding 210 amino acids, overexpressed via binary vector | inhibited | inhibited |
| ERF2.1: B. kaoi ethylene response factor gene, ORF of 693 bp encoding 230 amino acids, overexpressed via binary vector | inhibited | inhibited |
| ERF2.2: B. kaoi ethylene response factor gene, ORF of 702 bp encoding 233 amino acids, overexpressed via binary vector | inhibited | inhibited |

Source: US8222487B2, “Application of ERF genes from Bupleurum kaoi” (National Tsing Hua University, priority 2009, dated 2012)
